{
  "source": "PubChem BioAssay AID1963982",
  "about": "(Molecular Pharmacology Branch, DTP, NCI, 2024)",
  "system": "313798-341-R-J2-PDC spheroids, viability",
  "assay": "Anticancer human tumor 313798-341-R-J2-PDC patient-derived cervical squamous cell carcinoma cell line growth inhibition [PI3K]",
  "settings": "spheroids with HUVEC and MSC; for pIC50: curve of first compound; for viability, T/C: stronger effect = lower value",
  "method_in_brief": "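We assembled tumor spheroids that included a stromal compartment of HUVEC and MSCs, then exposed them to targeted agents alone and together with PI3K pathway inhibitors. Concentration series descended by half-log from clinically achievable Cmax levels. Viability served as the endpoint.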",
  "key": {"[1]": {"settings": "second compound 0.00316 µM, first compound 0.0316 µM"}, "[2]": {"settings": "second compound 0.00316 µM, first compound 0.1 µM"}, "[3]": {"settings": "second compound 0.01 µM, first compound 0.0316 µM"}, "[4]": {"settings": "second compound 0.01 µM, first compound 0.1 µM"}, "[5]": {"settings": "second compound 0.0316 µM, first compound 0.0316 µM"}, "[6]": {"settings": "second compound 0.0316 µM, first compound 0.1 µM"}, "[7]": {"settings": "second compound 0.1 µM, first compound 0.0316 µM"}, "[8]": {"settings": "second compound 0.1 µM, first compound 0.1 µM"}, "[9]": {"settings": "second compound 0.316 µM, first compound 0.0316 µM"}, "[10]": {"settings": "second compound 0.316 µM, first compound 0.1 µM"}, "[11]": {"settings": "second compound 1 µM, first compound 0.0316 µM"}, "[12]": {"settings": "second compound 1 µM, first compound 0.1 µM"}},
  "note": "pIC50: −log10 of the molar value.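 Also: spheroids exposed to compounds for seven days.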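 For viability, T/C in this document: 100% = DMSO vehicle control viability.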",
  "data": [
    {"smiles": "CC(C)NCC(C(=O)N1CCN(c2ncnc3c2C(C)CC3O)CC1)c1ccc(Cl)cc1", "note": "(centres undefined) + COc1c(OCCCN2CCOCC2)ccc2c3n(c(=NC(=O)c4cnc(N)nc4)nc12)CCN3", "values": [
      {"measurement": "pIC50", "setting": "second compound 0.00316 µM", "result": 5.62},
      {"measurement": "pIC50", "setting": "second compound 0.01 µM", "result": 5.92},
      {"measurement": "pIC50", "setting": "second compound 0.0316 µM", "result": 5.79},
      {"measurement": "pIC50", "setting": "second compound 0.1 µM", "result": "> 7.50"},
      {"measurement": "pIC50", "setting": "second compound 0.316 µM", "result": "> 7.50"},
      {"measurement": "pIC50", "setting": "second compound 1 µM", "result": "> 7.50"},
      {"measurement": "viability, T/C", "setting": "[1]", "result": 97.3, "unit": "%"},
      {"measurement": "viability, T/C", "setting": "[2]", "result": 99, "unit": "%"},
      {"measurement": "viability, T/C", "setting": "second compound 0.00316 µM, first compound 0.316 µM", "result": 83, "unit": "%"},
      {"measurement": "viability, T/C", "setting": "second compound 0.00316 µM, first compound 1 µM", "result": 64.3, "unit": "%"},
      {"measurement": "viability, T/C", "setting": "second compound 0.00316 µM, first compound 3.16 µM", "result": 46.9, "unit": "%"},
      {"measurement": "viability, T/C", "setting": "second compound 0.00316 µM, first compound 10 µM", "result": 33, "unit": "%"},
      {"measurement": "viability, T/C", "setting": "[3]", "result": 85.9, "unit": "%"},
      {"measurement": "viability, T/C", "setting": "[4]", "result": 97.1, "unit": "%"},
      {"measurement": "viability, T/C", "setting": "second compound 0.01 µM, first compound 0.316 µM", "result": 81.1, "unit": "%"},
      {"measurement": "viability, T/C", "setting": "second compound 0.01 µM, first compound 1 µM", "result": 52, "unit": "%"},
      {"measurement": "viability, T/C", "setting": "second compound 0.01 µM, first compound 3.16 µM", "result": 39.2, "unit": "%"},
      {"measurement": "viability, T/C", "setting": "second compound 0.01 µM, first compound 10 µM", "result": 29.8, "unit": "%"},
      {"measurement": "viability, T/C", "setting": "[5]", "result": 74.8, "unit": "%"},
      {"measurement": "viability, T/C", "setting": "[6]", "result": 73.6, "unit": "%"},
      {"measurement": "viability, T/C", "setting": "second compound 0.0316 µM, first compound 0.316 µM", "result": 59.9, "unit": "%"},
      {"measurement": "viability, T/C", "setting": "second compound 0.0316 µM, first compound 1 µM", "result": 63.2, "unit": "%"},
      {"measurement": "viability, T/C", "setting": "second compound 0.0316 µM, first compound 3.16 µM", "result": 33, "unit": "%"},
      {"measurement": "viability, T/C", "setting": "second compound 0.0316 µM, first compound 10 µM", "result": 26.1, "unit": "%"},
      {"measurement": "viability, T/C", "setting": "[7]", "result": 42.6, "unit": "%"},
      {"measurement": "viability, T/C", "setting": "[8]", "result": 38.6, "unit": "%"},
      {"measurement": "viability, T/C", "setting": "second compound 0.1 µM, first compound 0.316 µM", "result": 36.9, "unit": "%"},
      {"measurement": "viability, T/C", "setting": "second compound 0.1 µM, first compound 1 µM", "result": 34, "unit": "%"},
      {"measurement": "viability, T/C", "setting": "second compound 0.1 µM, first compound 3.16 µM", "result": 23.9, "unit": "%"},
      {"measurement": "viability, T/C", "setting": "second compound 0.1 µM, first compound 10 µM", "result": 18.6, "unit": "%"},
      {"measurement": "viability, T/C", "setting": "[9]", "result": 15.2, "unit": "%"},
      {"measurement": "viability, T/C", "setting": "[10]", "result": 18.4, "unit": "%"},
      {"measurement": "viability, T/C", "setting": "second compound 0.316 µM, first compound 0.316 µM", "result": 15.9, "unit": "%"},
      {"measurement": "viability, T/C", "setting": "second compound 0.316 µM, first compound 1 µM", "result": 17.6, "unit": "%"},
      {"measurement": "viability, T/C", "setting": "second compound 0.316 µM, first compound 3.16 µM", "result": 16.3, "unit": "%"},
      {"measurement": "viability, T/C", "setting": "second compound 0.316 µM, first compound 10 µM", "result": 8.87, "unit": "%"},
      {"measurement": "viability, T/C", "setting": "[11]", "result": 10.8, "unit": "%"},
      {"measurement": "viability, T/C", "setting": "[12]", "result": 11.6, "unit": "%"},
      {"measurement": "viability, T/C", "setting": "second compound 1 µM, first compound 0.316 µM", "result": 9.87, "unit": "%"},
      {"measurement": "viability, T/C", "setting": "second compound 1 µM, first compound 1 µM", "result": 13.1, "unit": "%"},
      {"measurement": "viability, T/C", "setting": "second compound 1 µM, first compound 3.16 µM", "result": 10.6, "unit": "%"},
      {"measurement": "viability, T/C", "setting": "second compound 1 µM, first compound 10 µM", "result": 5.77, "unit": "%"}
    ]},
    {"smiles": "Cn1ncnc1[C@H]1c2n[nH]c(=O)c3cc(F)cc(c23)N[C@@H]1c1ccc(F)cc1", "note": "+ COc1c(OCCCN2CCOCC2)ccc2c3n(c(=NC(=O)c4cnc(N)nc4)nc12)CCN3", "values": [
      {"measurement": "pIC50", "setting": "second compound 0.00316 µM", "result": "< 7.00"},
      {"measurement": "pIC50", "setting": "second compound 0.01 µM", "result": "< 7.00"},
      {"measurement": "pIC50", "setting": "second compound 0.0316 µM", "result": "< 7.00"},
      {"measurement": "pIC50", "setting": "second compound 0.1 µM", "result": "> 9.50"},
      {"measurement": "pIC50", "setting": "second compound 0.316 µM", "result": "> 9.50"},
      {"measurement": "pIC50", "setting": "second compound 1 µM", "result": "> 9.50"},
      {"measurement": "viability, T/C", "setting": "second compound 0.00316 µM, first compound 0.000316 µM", "result": 97.5, "unit": "%"},
      {"measurement": "viability, T/C", "setting": "second compound 0.00316 µM, first compound 0.001 µM", "result": 95.9, "unit": "%"},
      {"measurement": "viability, T/C", "setting": "second compound 0.00316 µM, first compound 0.00316 µM", "result": 107, "unit": "%"},
      {"measurement": "viability, T/C", "setting": "second compound 0.00316 µM, first compound 0.01 µM", "result": 111, "unit": "%"},
      {"measurement": "viability, T/C", "setting": "[1]", "result": 97.9, "unit": "%"},
      {"measurement": "viability, T/C", "setting": "[2]", "result": 93.1, "unit": "%"},
      {"measurement": "viability, T/C", "setting": "second compound 0.01 µM, first compound 0.000316 µM", "result": 106, "unit": "%"},
      {"measurement": "viability, T/C", "setting": "second compound 0.01 µM, first compound 0.001 µM", "result": 107, "unit": "%"},
      {"measurement": "viability, T/C", "setting": "second compound 0.01 µM, first compound 0.00316 µM", "result": 99, "unit": "%"},
      {"measurement": "viability, T/C", "setting": "second compound 0.01 µM, first compound 0.01 µM", "result": 89.6, "unit": "%"},
      {"measurement": "viability, T/C", "setting": "[3]", "result": 87.9, "unit": "%"},
      {"measurement": "viability, T/C", "setting": "[4]", "result": 87.3, "unit": "%"},
      {"measurement": "viability, T/C", "setting": "second compound 0.0316 µM, first compound 0.000316 µM", "result": 68.4, "unit": "%"},
      {"measurement": "viability, T/C", "setting": "second compound 0.0316 µM, first compound 0.001 µM", "result": 97.1, "unit": "%"},
      {"measurement": "viability, T/C", "setting": "second compound 0.0316 µM, first compound 0.00316 µM", "result": 75.8, "unit": "%"},
      {"measurement": "viability, T/C", "setting": "second compound 0.0316 µM, first compound 0.01 µM", "result": 71.5, "unit": "%"},
      {"measurement": "viability, T/C", "setting": "[5]", "result": 64.2, "unit": "%"},
      {"measurement": "viability, T/C", "setting": "[6]", "result": 65.1, "unit": "%"},
      {"measurement": "viability, T/C", "setting": "second compound 0.1 µM, first compound 0.000316 µM", "result": 39.6, "unit": "%"},
      {"measurement": "viability, T/C", "setting": "second compound 0.1 µM, first compound 0.001 µM", "result": 49.8, "unit": "%"},
      {"measurement": "viability, T/C", "setting": "second compound 0.1 µM, first compound 0.00316 µM", "result": 46.6, "unit": "%"},
      {"measurement": "viability, T/C", "setting": "second compound 0.1 µM, first compound 0.01 µM", "result": 43.6, "unit": "%"},
      {"measurement": "viability, T/C", "setting": "[7]", "result": 42.4, "unit": "%"},
      {"measurement": "viability, T/C", "setting": "[8]", "result": 37.1, "unit": "%"},
      {"measurement": "viability, T/C", "setting": "second compound 0.316 µM, first compound 0.000316 µM", "result": 17.3, "unit": "%"},
      {"measurement": "viability, T/C", "setting": "second compound 0.316 µM, first compound 0.001 µM", "result": 18.4, "unit": "%"},
      {"measurement": "viability, T/C", "setting": "second compound 0.316 µM, first compound 0.00316 µM", "result": 15.1, "unit": "%"},
      {"measurement": "viability, T/C", "setting": "second compound 0.316 µM, first compound 0.01 µM", "result": 15.7, "unit": "%"},
      {"measurement": "viability, T/C", "setting": "[9]", "result": 12.8, "unit": "%"},
      {"measurement": "viability, T/C", "setting": "[10]", "result": 15.7, "unit": "%"},
      {"measurement": "viability, T/C", "setting": "second compound 1 µM, first compound 0.000316 µM", "result": 11.8, "unit": "%"},
      {"measurement": "viability, T/C", "setting": "second compound 1 µM, first compound 0.001 µM", "result": 14.1, "unit": "%"},
      {"measurement": "viability, T/C", "setting": "second compound 1 µM, first compound 0.00316 µM", "result": 14.5, "unit": "%"},
      {"measurement": "viability, T/C", "setting": "second compound 1 µM, first compound 0.01 µM", "result": 12.5, "unit": "%"},
      {"measurement": "viability, T/C", "setting": "[11]", "result": 13.9, "unit": "%"},
      {"measurement": "viability, T/C", "setting": "[12]", "result": 10.1, "unit": "%"}
    ]}
  ]
}
